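Results reflect a 48-hour exposure of cells in 96-well plates to compound at five concentrations. Abbreviation: GI50, concentration required for 50% inhibition of growth.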 Calls of active or inactive are those of the source. Cut-off read from the data, not from the text of the source: active = GI50 up to about 1.1 µM and inactive = higher.
How the values were obtained:
Assay in all cases: inhibition of tumour cell growth, NCI panel, 48 h
786-0 = test system: 786-0
A498 = test system: A498
A549 = test system: A549
ACHN = test system: ACHN
BT-549 = test system: BT-549
CAKI-1 = test system: CAKI-1
CCRF-CEM = test system: CCRF-CEM
COLO 205 = test system: COLO 205
DU-145 = test system: DU-145
EKVX = test system: EKVX
HCC 2998 = test system: HCC 2998
HCT-116 = test system: HCT-116
HCT-15 = test system: HCT-15
HL-60 = test system: HL-60
HOP-62 = test system: HOP-62
HOP-92 = test system: HOP-92
HT-29 = test system: HT-29
Hs-578T = test system: Hs-578T
IGROV-1 = test system: IGROV-1
K562 = test system: K562
LOX IMVI = test system: LOX IMVI
M14 = test system: M14
MCF7 = test system: MCF7
MDA-MB-231 = test system: MDA-MB-231
MDA-MB-435 = test system: MDA-MB-435
MDA-N = test system: MDA-N
MOLT-4 = test system: MOLT-4
Malme-3M = test system: Malme-3M
NCI-H226 = test system: NCI-H226
NCI-H23 = test system: NCI-H23
NCI-H460 = test system: NCI-H460
NCI-H522 = test system: NCI-H522
NCI/ADR-RES = test system: NCI/ADR-RES
OVCAR-3 = test system: OVCAR-3
OVCAR-4 = test system: OVCAR-4
OVCAR-5 = test system: OVCAR-5
OVCAR-8 = test system: OVCAR-8
PC-3 = test system: PC-3
RPMI-8226 = test system: RPMI-8226
RXF 393 = test system: RXF 393
SF-268 = test system: SF-268
SF-295 = test system: SF-295
SF-539 = test system: SF-539
SK-MEL-28 = test system: SK-MEL-28
SK-MEL-2 = test system: SK-MEL-2
SK-MEL-5 = test system: SK-MEL-5
SN12C = test system: SN12C
SNB-19 = test system: SNB-19
SNB-75 = test system: SNB-75
SR = test system: SR
SW-620 = test system: SW-620
T47D = test system: T47D
TK-10 = test system: TK-10
U-251 = test system: U-251
UACC-257 = test system: UACC-257
UACC-62 = test system: UACC-62
KM12 = test system: KM12
UO-31 = test system: UO-31

Compound: COc1c2ccoc2cc2oc(=O)ccc12 [BERGAPTEN]
- GI50 (786-0): > 100 µM (inactive)
- GI50 (A498): > 100 µM (inactive)
- GI50 (A549): > 100 µM (inactive)
- GI50 (ACHN): > 100 µM (inactive)
- GI50 (BT-549): 49 µM (inactive)
- GI50 (CAKI-1): > 100 µM (inactive)
- GI50 (CCRF-CEM): > 100 µM (inactive)
- GI50 (COLO 205): > 100 µM (inactive)
- GI50 (DU-145): > 100 µM (inactive)
- GI50 (EKVX): 18.7 µM (inactive)
- GI50 (HCC 2998): > 100 µM (inactive)
- GI50 (HCT-116): > 100 µM (inactive)
- GI50 (HCT-15): > 100 µM
- GI50 (HL-60): > 100 µM (inactive)
- GI50 (HOP-62): > 100 µM (inactive)
- GI50 (HOP-92): > 100 µM (inactive)
- GI50 (HT-29): > 100 µM (inactive)
- GI50 (Hs-578T): 65.5 µM (inactive)
- GI50 (IGROV-1): > 100 µM (inactive)
- GI50 (K562): > 100 µM (inactive)
- GI50 (LOX IMVI): > 100 µM (inactive)
- GI50 (M14): > 100 µM (inactive)
- GI50 (MCF7): > 100 µM (inactive)
- GI50 (MDA-MB-231): > 100 µM (inactive)
- GI50 (MDA-MB-435): > 100 µM (inactive)
- GI50 (MDA-N): > 100 µM (inactive)
- GI50 (MOLT-4): > 100 µM (inactive)
- GI50 (Malme-3M): > 100 µM (inactive)
- GI50 (NCI-H226): > 100 µM (inactive)
- GI50 (NCI-H23): > 100 µM (inactive)
- GI50 (NCI-H460): > 100 µM (inactive)
- GI50 (NCI-H522): > 100 µM (inactive)
- GI50 (NCI/ADR-RES): > 100 µM (inactive)
- GI50 (OVCAR-3): > 100 µM (inactive)
- GI50 (OVCAR-4): > 100 µM (inactive)
- GI50 (OVCAR-5): > 100 µM (inactive)
- GI50 (OVCAR-8): > 100 µM (inactive)
- GI50 (PC-3): > 100 µM (inactive)
- GI50 (RPMI-8226): > 100 µM (inactive)
- GI50 (RXF 393): > 100 µM (inactive)
- GI50 (SF-268): > 100 µM (inactive)
- GI50 (SF-295): > 100 µM (inactive)
- GI50 (SF-539): > 100 µM (inactive)
- GI50 (SK-MEL-28): > 100 µM (inactive)
- GI50 (SK-MEL-2): > 100 µM (inactive)
- GI50 (SK-MEL-5): > 100 µM (inactive)
- GI50 (SN12C): > 100 µM (inactive)
- GI50 (SNB-19): > 100 µM (inactive)
- GI50 (SNB-75): 89.1 µM (inactive)
- GI50 (SR): > 100 µM (inactive)
- GI50 (SW-620): > 100 µM (inactive)
- GI50 (T47D): > 100 µM (inactive)
- GI50 (TK-10): > 100 µM (inactive)
- GI50 (U-251): 67.9 µM (inactive)
- GI50 (UACC-257): > 100 µM (inactive)
- GI50 (UACC-62): > 100 µM (inactive)

Compound: COc1cc2oc(-c3ccc(O)cc3)cc(=O)c2c(OC)c1OC
- GI50 (786-0): > 100 µM (inactive)
- GI50 (A498): > 100 µM (inactive)
- GI50 (A549): > 100 µM (inactive)
- GI50 (ACHN): > 100 µM (inactive)
- GI50 (BT-549): > 100 µM (inactive)
- GI50 (CAKI-1): > 100 µM (inactive)
- GI50 (CCRF-CEM): > 100 µM (inactive)
- GI50 (COLO 205): > 100 µM (inactive)
- GI50 (DU-145): > 100 µM (inactive)
- GI50 (EKVX): > 100 µM (inactive)
- GI50 (HCC 2998): > 100 µM (inactive)
- GI50 (HCT-116): > 100 µM (inactive)
- GI50 (HCT-15): > 100 µM
- GI50 (HL-60): > 100 µM (inactive)
- GI50 (HOP-62): > 100 µM (inactive)
- GI50 (HOP-92): > 100 µM (inactive)
- GI50 (HT-29): > 100 µM (inactive)
- GI50 (Hs-578T): > 100 µM (inactive)
- GI50 (IGROV-1): > 100 µM (inactive)
- GI50 (K562): > 100 µM (inactive)
- GI50 (KM12): > 100 µM (inactive)
- GI50 (LOX IMVI): > 100 µM (inactive)
- GI50 (M14): > 100 µM (inactive)
- GI50 (MCF7): > 100 µM (inactive)
- GI50 (MDA-MB-231): > 100 µM (inactive)
- GI50 (MDA-MB-435): > 100 µM (inactive)
- GI50 (MDA-N): > 100 µM (inactive)
- GI50 (MOLT-4): > 100 µM (inactive)
- GI50 (Malme-3M): > 100 µM (inactive)
- GI50 (NCI-H226): > 100 µM (inactive)
- GI50 (NCI-H23): > 100 µM (inactive)
- GI50 (NCI-H460): > 100 µM (inactive)
- GI50 (NCI-H522): > 100 µM (inactive)
- GI50 (NCI/ADR-RES): > 100 µM (inactive)
- GI50 (OVCAR-3): > 100 µM (inactive)
- GI50 (OVCAR-4): > 100 µM (inactive)
- GI50 (OVCAR-5): > 100 µM (inactive)
- GI50 (OVCAR-8): > 100 µM (inactive)
- GI50 (PC-3): > 100 µM (inactive)
- GI50 (RPMI-8226): > 100 µM (inactive)
- GI50 (RXF 393): > 100 µM (inactive)
- GI50 (SF-268): > 100 µM (inactive)
- GI50 (SF-295): > 100 µM (inactive)
- GI50 (SF-539): > 100 µM (inactive)
- GI50 (SK-MEL-28): > 100 µM (inactive)
- GI50 (SK-MEL-5): > 100 µM (inactive)
- GI50 (SN12C): > 100 µM (inactive)
- GI50 (SNB-19): > 100 µM (inactive)
- GI50 (SNB-75): 18.4 µM (inactive)
- GI50 (SR): > 100 µM (inactive)
- GI50 (SW-620): > 100 µM (inactive)
- GI50 (T47D): 63.5 µM (inactive)
- GI50 (TK-10): > 100 µM (inactive)
- GI50 (U-251): > 100 µM (inactive)
- GI50 (UACC-257): > 100 µM (inactive)
- GI50 (UACC-62): > 100 µM (inactive)
- GI50 (UO-31): > 100 µM (inactive)

Source: ChEMBL document CHEMBL1201862, “PubChem BioAssay data set” (2004)
